As a reminder, the IC50 is the midpoint of a concentration-inhibition curve.

Two molecules from PMC9277925, “Discovery of a novel ALK/ROS1/FAK inhibitor, APG-2449, in preclinical non-small cell lung cancer and ovarian cancer models” (BMC Cancer, 2022) can be followed below.

One assay concerns OV1396. Put plainly: Ovarian cancer PDX mouse trial. Particulars: treatment 43 days. It counts as in vivo, mice.
A further assay concerns OV1658. Put plainly: Ovarian cancer PDX mouse trial. The format is in vivo, mice. Particulars: treatment 19 days.
The next assay relates to OV2423. Put plainly: Ovarian cancer PDX mouse trial. The format is in vivo, mice. The settings on record: treatment 28 days.
For a further assay, the system named is OV2018. Put plainly: Ovarian cancer PDX mouse trial. The settings on record: treatment 35 days. The format is in vivo, mice.
Another assay has as its system OV0243. Nature of the assay: Ovarian cancer PDX mouse trial. The settings on record: treatment 36 days. The format is in vivo, mice.
In assay [1] the test system is ovarian cancer OVCAR-3 CDX tumors. Put plainly: OVCAR-3 ovarian CDX efficacy. It counts as in vivo, BALB/c nude mice. The procedure:
(§1) A range of compounds were administered orally (PO) once daily (QD). […] Osimertinib was dissolved in 20% polyethylene glycol 400 (PEG-400; Sigma-Aldrich) and erlotinib in 2% TWEEN 80 (Sigma-Aldrich). Trametinib was dissolved in a solvent composed of 1% carboxymethylcellulose, 0.5% TWEEN 80, and 0.5% methylcellulose. Defactinib was dissolved in 10% PEG 400 plus 5% ethanol (Sigma-Aldrich) in 1× phosphate-buffered saline (Genom Biotech; Hangzhou, China) and administered PO twice daily. Paclitaxel dissolved in saline was administered intraperitoneally once weekly.
(§2) The following were computed as previously reported (23): mean ± SEM tumor volumes, percent changes in body weight, tumor growth inhibition in treatment/control (T/C; %), modified Response Evaluation Criteria in Solid Tumors (mRECIST) objective response rate (ORR %), and disease control rate (DCR, %).

A further assay relates to OV1385. Put plainly: Ovarian cancer PDX mouse trial. It counts as in vivo, mice. The settings on record: treatment 35 days.
Assay [2] has as its system osimertinib-resistant PC-9/OR CDX xenografts. Nature of the assay: PC-9/OR CDX efficacy. It counts as in vivo, BALB/c nude mice. The settings on record: treated for 3 weeks. As to the method: All other human lines were obtained from Cobio Biosciences (Nanjing, China). Murine pro-B cell lines BaF3 and BaF3_EML4-ALK^G1202R were purchased from KYinoo (Beijing). Other BaF3-engineered cell lines were constructed internally. An osimertinib-resistant parental cell (PC-9/OR) line was established by exposing PC-9 cells to escalating concentrations of osimertinib for 3 months.
as §1, §2

Assay [3] deals with PC-9/OR (osimertinib-resistant) cells. Put plainly: WST-8 cell viability assay. The format is cell-based. Particulars: Homo sapiens, PC9-OR, 72 h; treated for 3 days. From the text:
Purchased human cancer cell lines included: (1) ES-2, HO-8910 PM and SW620 (Shanghai Institute of Biochemistry and Cell Biology); (2) HCC827, NCI-H1650, NCI-H1975, HepG2, and IMR-32 (American Type Culture Collection; Manassas, VA); and (3) OVCAR-3 (China Center for Type Culture Collection; Wuhan). All other human lines were obtained from Cobio Biosciences (Nanjing, China). Murine pro-B cell lines BaF3 and BaF3_EML4-ALK^G1202R were purchased from KYinoo (Beijing). Other BaF3-engineered cell lines were constructed internally. An osimertinib-resistant parental cell (PC-9/OR) line was established by exposing PC-9 cells to escalating concentrations of osimertinib for 3 months.
(§3) Cell viability was determined using the water-soluble tetrazolium salt (WST-8) assay (Cell counting Kit-8, Shanghai Life iLab). Cell viability was calculated as follows, where “RLU” signifies relative light units: Cellviability=meanRLUsample-meanRLUblank/RLUcellcontrol-RLUblank×100
(§4) Half-maximal inhibitory concentration (IC50) values were calculated using Prism (GraphPad, San Diego, CA).

The test system of assay [4] is NCI-H1975 CDX model, osimertinib-relapsed. Put plainly: NCI-H1975 CDX osimertinib-relapsed rechallenge. Particulars: osimertinib 15 mg/kg for 21 days. The format is in vivo, BALB/c nude mice. As to the method: as §1, §2
The test system of another assay is PC-9 (parental) cells. Nature of the assay: WST-8 cell viability assay. The format is cell-based. Particulars: Homo sapiens, 72 h; treated for 3 days. The procedure: as §3, §4

`N.N.O=C([O-])C1(C(=O)[O-])CCC1.[Pt+2]` [Carboplatin, carboplatin]: the “Carboplatin (T/C %)” value in the assay on OV1396 is on record as 65.3%; in the assay with OV1658 it was 68.4%; in the assay with OV2423 it was 47.8%; in the assay on OV2018, 113.2%; in the assay with OV0243, 0.0%; in the assay on OV1385, 51.5%. Besides, the “antitumor activity of monotherapy (in words)” value in [1] is on record as “weak or marginal antitumor activity”.

As to `C=CC(=O)Nc1cc(Nc2nccc(-c3cn(C)c4ccccc34)n2)c(OC)cc1N(C)CCN(C)C` [Osimertinib, osimertinib], the “antitumor activity (in words)” value in [2] is given as “negligible antitumor activity”. The figures for the IC50 (in assay [3]; in the assay on PC-9 (parental) cells) were 19.3 µM and 0.086 µM, respectively. For the same molecule, the “response to initial treatment (in words)” value in [4] is listed as “all treated animals achieved complete response”.
